Assay [1] deals with T1, PIP4K2B (Homo sapiens, UniProt P78356).
T1 construct: made in house; host or cells: E. coli
T1 sequence (P78356 1-416): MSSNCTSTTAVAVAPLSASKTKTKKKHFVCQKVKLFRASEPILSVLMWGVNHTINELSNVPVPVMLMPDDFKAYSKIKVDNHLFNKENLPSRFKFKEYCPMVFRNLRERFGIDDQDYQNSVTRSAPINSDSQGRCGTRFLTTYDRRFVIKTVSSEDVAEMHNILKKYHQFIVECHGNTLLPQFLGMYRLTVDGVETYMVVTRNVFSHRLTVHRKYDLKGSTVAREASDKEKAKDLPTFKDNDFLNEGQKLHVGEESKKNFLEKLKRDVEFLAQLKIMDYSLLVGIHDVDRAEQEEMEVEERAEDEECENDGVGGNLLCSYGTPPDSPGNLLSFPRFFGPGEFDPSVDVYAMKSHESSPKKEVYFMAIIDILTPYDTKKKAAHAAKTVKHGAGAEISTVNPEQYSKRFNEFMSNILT
The experiment in a line: Trans-FI P kinase assay PIP4K2B (PIP4KtypeIIB inhibition assay). To be noted: compounds listed under IC50 bin headings; 100 uM GTP; read-out: Trans-FI P kinase assays: PIP4K2B IC50. The class given is biochemical. The text has this:
GST tagged PIP4KtypeIIA and B enzymes were overexpressed in E. Coli and purified to >80% homogeneity. Phosphatidyl inositol-5-phosphate (PI5P, Cat. #850152, Avanti Polar Lipids Inc.) was used as the lipid substrate and phosphatidyl ethanolamine (DOPE 18:1, Cat. #850725, Avanti Polar Lipids Inc.) was used as the carrier lipid for assays. Ultrapure ATP and GTP was purchased from Bellbrooke Labs. ADP Glo reagents were obtained from Promega. Transcreener FI reagent was obtained from Bellbrooke labs.
GST-tagged PIP4KtypeIIB (3.4 uL, 2.77 mg/mL) was diluted to 5 mL using HNE buffer to yield 5× enzyme stock (25 nM)
Lipid Preparation: In a 10 mL pyrex glass vial, 1 ug of PI5P and 1 ug of DOPE were suspended in 2.5 mL of HEPES buffer mix and 2.5 mL of H:E buffer. The contents were mixed and sonicated for 3 min to yield a translucent lipid stock.
Compound Preparation: Compounds were stored as 5 mM stocks in neat DMSO as room temperature in glass vials. 5 mM stocks were diluted to 2 mM and then serially diluted (3×) in neat DMSO in 96 well polypropylene plates. From the serially diluted stocks, 3 uL was delivered into 250 uL of 25% DMSO (in water) to generate 5× compound stocks. Typically, the highest compound conc. was 24 uM.
The assay volume was kept at 25 uL. To each well of the reaction plate, 10 uL of lipid stock (1:1 ratio PI5P:DOPE) was delivered. This was followed by the addition of 5 uL of compound in 25% DMSO. Then, to each well, 5 uL of 25 nM (5×) typeIIB enzyme was delivered. The contents were mixed well and incubated for 1 h at 27 C. After 1 h, reaction was initiated by adding 5 uL of 500 uM GTP and the contents were mixed well with a multi-channel pipetteman. The final concentration of the reagents are as follows: 50 mM HEPES, pH 7.3, 10 mM MgCl2, 20 mM NaCl, 0.01% v/v triton-X100, 5% DMSO, 100 uM GTP, 80 uM (2 ug) PI5P, 2 ug DOPE, and 5 nM PIP4KIIB Typically, the highest conc. of compounds was 4.8 uM and the lowest conc. was 0.
After 2 h, the reaction was quenched by adding 25 uL of transcreener FI reagent. The contents were incubated at RT for 1 h and the Fluorescence (Ex: 584 Em: 623) was read using Molecular Devices Paradigm plate reader. […] The blanks were averaged and subtracted from all other wells. Using a calibration curve, RFU was converted to uM GDP (product). IC50 was calculated by plotting the residual activity (expressed as % No inhibitor control) vs. log [Inh. conc.]

Assay [2] addresses T2, PIP4K 2A (Homo sapiens, UniProt P48426).
T2 sequence (P48426 1-406): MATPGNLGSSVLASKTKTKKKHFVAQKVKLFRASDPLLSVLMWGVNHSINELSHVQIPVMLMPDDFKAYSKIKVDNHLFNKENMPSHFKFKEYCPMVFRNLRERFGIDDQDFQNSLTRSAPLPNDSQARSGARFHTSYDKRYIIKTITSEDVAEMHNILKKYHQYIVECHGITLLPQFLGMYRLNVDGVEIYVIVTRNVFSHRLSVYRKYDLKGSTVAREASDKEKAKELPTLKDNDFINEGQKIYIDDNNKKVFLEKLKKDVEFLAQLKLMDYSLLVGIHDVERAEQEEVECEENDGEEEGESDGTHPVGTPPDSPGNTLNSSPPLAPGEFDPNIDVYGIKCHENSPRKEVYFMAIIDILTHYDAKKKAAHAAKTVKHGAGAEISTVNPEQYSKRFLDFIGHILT
The experiment in a line: ADP-glo kinase assay PIP4K 2A. It is filed as biochemical. Details: 4 nM PIP4K2A (full length protein, SignalChem); purchased SignalChem. To be noted: compounds listed under IC50 bin headings. Here is the method:
Dilution series of the compounds were prepared in DMSO at 100 times the final assay concentration (n1=n0/3 in 10 points). The compounds were further diluted to three times the assay concentration in assay buffer (20 mM MOPS pH 7.2, 25 mM magnesium chloride, 0.005% Tween 20). 6 μL of the diluted compounds were added to a 384 well assay plate followed by 9 μL of a mix consisting of 4 nM PIP4K2A (full length protein, SignalChem) and 100 μM PI(5)P diC8 (Tebu-Bio). Enzyme and compounds were pre-incubated at room temperature for 15 minutes.
Then 3 μL of a solution containing 60 μM ATP (Promega) in assay buffer was added to the wells containing compound and enzyme and mixing was performed by pipetting several times. The reaction was incubated at room temperature for 1 h. Then 18 μL of ADP-Glo™ Reagent (Promega) was added to stop the kinase reaction and deplete the unconsumed ATP, mixing was performed by pipetting several times. The plate was incubated at room temperature for 40 minutes before addition of 36 μL of Kinase Detection Reagent (Promega) to convert ADP to ATP and introduce luciferase and luciferin to detect ATP. The reaction was incubated at room temperature for 40 minutes before the luminescence was measured in a in a Victor 3V 1420 multilabel counter (Perkin Elmer).
Percent inhibition of the compounds as compared to dimethyl sulfoxide treated control samples was calculated. Compound concentration versus percent inhibition were fitted to generate IC50 values.
On the technique in general: In ADP-Glo the light output rises with the ADP produced.

The values that follow come from patent US11584763B2, “Chromenopyridine derivatives as phosphatidylinositol phosphate kinase inhibitors” (HIBERCELL, INC., priority 2017, dated 2023).

SMILES strings stand for the structures. pIC50: −log10 of the molar value. Where only a bound is given, the exact number is not on record here.

For `CC1Oc2cc(N3CCCC3=O)c(F)cc2-c2cnc(Nc3cnc4c(c3)N3C(=O)[C@](C)(O)C[C@H]3CO4)cc21` (stereo partly drawn) [Example 204, (6aS,8R)-2-((9-fluoro-5-methyl-8-(2-oxopyrrolidin-1-yl)-5H-chromeno[4,3-c]pyridin-3-yl)amino)-8-hydroxy-8-methyl-6,6a,7,8-tetrahydro-9H-pyrido[2,3-b]pyrrolo[1,2-d][1,4]oxazin-9-one], the pIC50 – broadly, −log10 of the IC50, conventionally taken in molar units – is 7.00 to 8.00 in assay [1] and 8.00 to 9.00 in assay [2].
Regarding `CC1Oc2cc(N3CCCC3=O)ccc2-c2cnc(Nc3cnc4c(c3)N3C(=O)C(C)(C)C[C@H]3CO4)cc21` (stereo partly drawn) [Example 156, (6aS)-8,8-dimethyl-2-((5-methyl-8-(2-oxopyrrolidin-1-yl)-5H-chromeno[4,3-c]pyridin-3-yl)amino)-6,6a,7,8-tetrahydro-9H-pyrido[2,3-b]pyrrolo[1,2-d][1,4]oxazin-9-one], the pIC50 in assay [1] was 8.00 to 9.00; in assay [2], at least 9.00.
In the case of `CC1Oc2cc(N3CCCC3=O)ccc2-c2cnc(Nc3cncc(NC(=O)c4ccn5ccnc5c4)c3)cc21` (stereo not drawn) [Example 147, N-(5-((5-methyl-8-(2-oxopyrrolidin-1-yl)-5H-chromeno[4,3-c]pyridin-3-yl)amino)pyridin-3-yl)imidazo[1,2-a]pyridine-7-carboxamide], the pIC50 was 7.00 to 8.00 in assay [1] and 8.00 to 9.00 in assay [2].
Turning to `CC1Oc2cc(N3CCCC3=O)ccc2-c2cnc(Nc3cncc(NC(=O)c4ccc5c(c4)OCO5)c3)cc21` (stereo not drawn) [Example 136, N-(5-((5-methyl-8-(2-oxopyrrolidin-1-yl)-5H-chromeno[4,3-c]pyridin-3-yl)amino)pyridin-3-yl)benzo[d][1,3]dioxole-5-carboxamide], the negative logarithm of the IC50 (pIC50) in assay [1] is 7.00 to 8.00; in assay [2], 8.00 to 9.00.
As for `CN1CCN(c2cncc(Nc3cc4c(cn3)-c3ccc(N5CCCC5=O)cc3OC4(C)C)c2)S1(=O)=O` [Example 186, 1-(5,5-dimethyl-3-((5-(5-methyl-1,1-dioxido-1,2,5-thiadiazolidin-2-yl)pyridin-3-yl)amino)-5H-chromeno[4,3-c]pyridin-8-yl)pyrrolidin-2-one], the pIC50 in assay [1] and in assay [2] was 7.00 to 8.00 in each case.
As to `CC1Oc2cc(N3CCCC3=O)ccc2-c2cnc(Nc3cncc(NC(=O)CCc4ccccc4)c3)cc21` (stereo not drawn) [Example 110, N-(5-((5-methyl-8-(2-oxopyrrolidin-1-yl)-5H-chromeno[4,3-c]pyridin-3-yl)amino)pyridin-3-yl)-3-phenylpropanamide], the pIC50 in assay [1] was 7.00 to 8.00; in assay [2], 8.00 to 9.00.
The corresponding values for `CC1Oc2cc(N3CCCC3=O)ccc2-c2cnc(Nc3cncc(NC(=O)C(O)Cc4ccccc4)c3)cc21` (stereo not drawn) [Example 134, 2-hydroxy-N-(5-((5-methyl-8-(2-oxopyrrolidin-1-yl)-5H-chromeno[4,3-c]pyridin-3-yl)amino)pyridin-3-yl)-3-phenylpropanamide] are 7.00 to 8.00 and 8.00 to 9.00.
As for `O=C1CCCN1c1ccc2c(c1)OCc1cc(Nc3cnc4c(c3)OCCO4)ncc1-2` [Example 163, 1-(3-((2,3-dihydro-[1,4]dioxino[2,3-b]pyridin-7-yl)amino)-5H-chromeno[4,3-c]pyridin-8-yl)pyrrolidin-2-one], the pIC50 in assay [1] was 7.00 to 8.00; in assay [2], 8.00 to 9.00.
The corresponding values for `CC1Oc2cc(N3CCCC3=O)ccc2-c2cnc(Nc3cncc(NC(=O)c4cccnc4)c3)cc21` (stereo not drawn) [Example 113, N-(5-((5-methyl-8-(2-oxopyrrolidin-1-yl)-5H-chromeno[4,3-c]pyridin-3-yl)amino)pyridin-3-yl)nicotinamide] are 7.00 to 8.00 and 8.00 to 9.00.
Take `COCCC(=O)N1CCN(c2cncc(Nc3cc4c(cn3)-c3cc(F)c(N5CCCC5=O)cc3OC4C)c2)CC1` (stereo not drawn) [Example 172, 1-(9-fluoro-3-((5-(4-(3-methoxypropanoyl)piperazin-1-yl)pyridin-3-yl)amino)-5-methyl-5H-chromeno[4,3-c]pyridin-8-yl)pyrrolidin-2-one]: the pIC50 is 7.00 to 8.00 in assay [1] and 8.00 to 9.00 in assay [2].
In the case of `CC1Oc2cc(N3CCCC3=O)ccc2-c2cncc(Nc3ccncc3)c21` (stereo not drawn) [Example 203, 1-(5-methyl-4-(pyridin-4-ylamino)-5H-chromeno[4,3-c]pyridin-8-yl)pyrrolidin-2-one], the pIC50 in assay [1] and in assay [2] was under 6.00 throughout.
Regarding `CC1Oc2cc(N3CCCC3=O)ccc2-c2cnc(Nc3cnc4c(c3)N3C(=O)C5(CC5)C[C@H]3CO4)cc21` (stereo partly drawn) [Example 157, (6a′S)-2′-((5-methyl-8-(2-oxopyrrolidin-1-yl)-5H-chromeno[4,3-c]pyridin-3-yl)amino)-6a′,7′-dihydro-6′H,9′H-spiro[cyclopropane-1,8′-pyrido[2,3-b]pyrrolo[1,2-d][1,4]oxazin]-9′-one], the values for the pIC50 in assay [1] and in assay [2] were 8.00 to 9.00 and at least 9.00, respectively.
`CNC(=O)Nc1cncc(Nc2cc3c(cn2)-c2ccc(N4CCCC4=O)cc2OC3C)c1` (stereo not drawn) [Example 99, 1-methyl-3-(5-((5-methyl-8-(2-oxopyrrolidin-1-yl)-5H-chromeno[4,3-c]pyridin-3-yl)amino)pyridin-3-yl)urea]: the pIC50 in assay [1] is 7.00 to 8.00; in assay [2], 8.00 to 9.00.
In the case of `COc1cccc(C(=O)Nc2cncc(Nc3cc4c(cn3)-c3ccc(N5CCCC5=O)cc3OC4C)c2)c1` (stereo not drawn) [Example 121, 3-methoxy-N-(5-((5-methyl-8-(2-oxopyrrolidin-1-yl)-5H-chromeno[4,3-c]pyridin-3-yl)amino)pyridin-3-yl)benzamide], the negative logarithm of the IC50 (pIC50) in assay [1] was 8.00 to 9.00; in assay [2], at least 9.00.
The like results for `CC1Oc2cc(N3CCCC3=O)ccc2-c2cnc(Nc3cncc(NC(=O)Cc4cnc5ccccn45)c3)cc21` (stereo not drawn) [Example 145, 2-(imidazo[1,2-a]pyridin-3-yl)-N-(5-((5-methyl-8-(2-oxopyrrolidin-1-yl)-5H-chromeno[4,3-c]pyridin-3-yl)amino)pyridin-3-yl)acetamide] were, in that order, 7.00 to 8.00 and 8.00 to 9.00.
